# Laboratory results: patent US11945807B2, “Splicing modulator antibody-drug conjugates and methods of use” (EISAI R&D MANAGEMENT CO., LTD., priority 2018, dated 2024)
# Where two headings read alike, the source gives them in different places.
# Assays:
# SF3b complex = molecular target: T1, SF3b complex (Homo sapiens, UniProt O75533+Q7RTV0); assay: SF3B1 binding / scintillation proximity assay (SPA)
# T1 construct: The beads were suspended and added to the prepared nuclear extracts; endogenous in cells; host or cells: nuclear extracts
# Description: A scintillation proximity assay was performed to measure the binding affinity of compounds (“payloads”) to the SF3b complex. Batch immobilization of anti-SF3B1 antibody (MBL) to anti-mouse PVT SPA scintillation beads (PerkinElmer) was prepared as follows: for every 2.5 mg of nuclear extracts, 5 μg of anti-SF3B1 antibody and 1.5 mg of beads were mixed in 150 μL PBS. The antibody-bead mixture was incubated for 30 min at RT and centrifuged at 18,000 g for 5 min. 150 μL PBS was used to resuspend every 1.5 mg antibody-bead mixture. The beads were suspended and added to the prepared nuclear extracts. The slurry was incubated for 2 hours at 4° C. with gentle mixing. The beads were then collected by centrifuging at 18,000 g for 5 min, and washed twice with PBS+0.1% Triton X-100. After a final centrifugation step, every 1.5 mg of beads was suspended with 150 μL of PBS. […] The mixture was incubated for 30 min, and luminescence signals were read using a MicroBeta2 Plate Counter (PerkinElmer). Prism 7 (Graphpad) was used for non-linear regression curve fitting of the data.
# N87 cells = assay: Cell viability CellTiter-Glo, N87; type: cell-based, human; conditions: unconjugated payload of the ADC; for GI50: Homo sapiens
# Description: (§1) HCC1954 (American Type Culture Collection (ATCC)) breast ductal carcinoma cells were plated at 2000 cells/well in flat bottom 96-well tissue culture plates (Corning) in a total volume of 90 μL tissue culture medium supplemented with 10% fetal bovine serum (ThermoFisher Scientific). Cells were treated with a 3-fold serial dilution of compound from 200 nM to 0.03 nM. Each concentration was tested in triplicate. At the time of treatment, a plate of untreated cells was evaluated using CellTiter-Glo®2.0 Luminescent Cell Viability Assay according to the manufacturers recommendations (Promega; #G9241). CellTiter-Glo® 2.0 reagent was added to the medium, incubated, and assayed on an EnVision Multilabel Reader (PerkinElmer). Values represent time zero (T0). […] Percentage growth inhibition was calculated as: [(T144−T0)/(C−T0)]×100 for concentrations for which T144>/=T0 or [(T144−T0)/T0]×100 for concentrations for which T144<T0. The dose response curve plots were generated using Prism 7 (Graphpad) and fit using nonlinear regression analysis and the log(inhibitor) versus response-variable slope (four parameters).
# (§2) HCC1954 (ATCC), 2000 cells/well), N87 (ATCC, 4000 cells/well), SKBR3 (ATCC, 3000 cells/well), and MCF7 (ATCC, 1500 cells/well) cell lines were used.
# MCF7 cells = assay: Cell viability CellTiter-Glo, MCF7 (HER2-negative); type: cell-based; conditions: Homo sapiens, unconjugated payload of the ADC
# Description: as §1, §2
# THP1.1 = assay: Payload cell potency and lethality CTGlo 72 h, THP1.1; type: cell-based
# [1] = Caco-2 permeability of ADC payload; type: in vitro ADME; conditions: human; for Papp B→A at 2 h, 10 NM: basolateral to apical, read-out: Permeability Mean Caco-2 B-A Perm (10e−G cm/s)
# Caco-2 cells = assay: Caco-2 permeability of ADC payload; type: in vitro ADME; conditions: for Perm. Mean Caco 2 A-B Perm (10e−6 cm/s) / Perm. Mean Caco 2 B-A Perm (10e−6 cm/s): corresponding free payload
# [2] = Chemical stability of ADC payload, pH 5.5 buffer; type: physicochemical; conditions: for half-life at 20 μM: McIlvaine (citrate-phosphate) buffer, unconjugated payload, Citrate-Phosphate buffer pH 5.5, 37° C., read-out: Stability Mean Stability t1/2 pH5.5 (converted); for pH 5.5 Stability (t1/2, 37 C.): pH 5.5, 37 C., corresponding payload
# Description: (Eppendorf ThermoMixer). […] Time 0 was set to 100.
# PC3 cells = assay: Cell viability CellTiter-Glo, PC3 (EPHA2-expressing); type: cell-based; conditions: for GI50: Homo sapiens, PC-3, free payload of the ADC
# Description: as §1
# (§3) Anti-CD138 ADCs were tested in the CD138-expressing MOLP8 multiple myeloma cell line. Similarly, anti-EPHA2 ADCs were tested in the EPHA2-expressing PC3 prostate cancer cell line.
# NCIH1650.1 = assay: Payload cellular potency CTGlo-ATS 72 h, NCIH1650.1; type: cell-based; conditions: cell line #1, 72 h, corresponding free payload; for GI50: read-out: CTGlo-ATS GMean GI50 (nM) 72 h NCIH1650.1
# NCIH1568.1 = assay: Payload cellular potency CTGlo-ATS 72 h, NCIH1568.1; type: cell-based; conditions: cell line #2, 72 h, corresponding free payload; for GI50: read-out: CTGlo-ATS GMean GI50 (nM) 72 h NCIH1568.1
# HCC1954 cells = assay: Cell viability CellTiter-Glo, HCC1954; conditions: for GI50: Homo sapiens, HCC1954, read-out: Payload GI50 (nM)
# MOLP8 cells = assay: Cell viability CellTiter-Glo, MOLP8 (CD138-expressing); type: cell-based; conditions: for GI50: Homo sapiens, MOLP-8, unconjugated payload of the ADC in the row, read-out: Payload GI50
# Description: as §1, §3
# [3] = unconjugated payload, [3H]-pladienolide B probe displacement, read-out: SPA-AT S GMean IC50 (nM) SF381 (WT) HELA.2
# [4] = read-out: CTGlo-ATS GMean GI50 (nM) 72 h THP1.1, cell line #3, 72 h, corresponding free payload
# [5] = Caco-2, unconjugated payload, apical to basolateral, 2 hours, read-out: Permeability Mean Caco-2 A-B Perm (10e−6 cm/s)
# [6] = Caco-2, unconjugated payload, 2 hours
# [7] = Caco-2, A-B, corresponding payload (Table 26), read-out: Permeability Caco-2 A-B (10e−6 cm/s)
# [8] = unconjugated payload of the ADC
# [9] = unconjugated payload of the ADC, HCC1954 cells
SMILES,IC50 (SF3b complex; [3]),GI50 (N87 cells),Payload Rmin (%) (N87 cells),GI50 (MCF7 cells),GI50 (THP1.1; [4]),CTGlo-AT S Mean Min-Response % 72 h THP1.1 (THP1.1; unconjugated payload),"Papp A→B at 2 h, 10 NM [1, 5]","Papp B→A at 2 h, 10 NM [1, 6]",Perm. Mean Caco 2 A-B Perm (10e−6 cm/s) (Caco-2 cells),Perm. Mean Caco 2 B-A Perm (10e−6 cm/s) (Caco-2 cells),half-life at 20 μM [2],GI50 (PC3 cells),Payload Rmin (%) (PC3 cells; free payload of the ADC),CTGlo-ATS GMean LD50 (nM) 72 h NCIH1650.1 (NCIH1650.1),GI50 (NCIH1650.1),CTGlo-ATS GMean LD50 (nM) 72 h NCIH1568.1 (NCIH1568.1),GI50 (HCC1954 cells),"Papp A→B at 2 h, 10 NM [1, 7]","pH 5.5 Stability (t1/2, 37 C.) [2]",GI50 (MOLP8 cells),other results
"CC[C@H](O)[C@@H](C)C1OC1C[C@@](C)(O)/C=C/C=C(\C)[C@H]1OC(=O)C[C@H](O)CC[C@@](C)(OC)[C@@H](OC(=O)N2CCNCC2)/C=C/[C@@H]1C (stereo in doubt) [D1, (2S,3S,6S,7R,10R,E)-10-hydroxy-2-((R,2E,4E)-6-hydroxy-7-((2S,3S)-3-((2R,3S)-3-hydroxypentan-2-yl)oxiran-2-yl)-6-methylhepta-2,4-dien-2-yl)-7-methoxy-3,7-dimethyl-12-oxooxacyclododec-4-en-6-yl piperazine-1-carboxylate]",6.08 nM,7.04 nM,−40.041%,17 nM,11.1 nM,−100.615%,0.14 ×10⁻⁶ cm/s,2.05 ×10⁻⁶ cm/s,0.14 10e−6 cm/s,2.05 10e−6 cm/s,94.8 h,13.3 nM,−71.987%,>10000.00 nM,12.1 nM,65.737 nM,1.85 nM,,,,"IC50 (SF3b complex; target binding, corresponding free payload, read-out: SPA-ATS GMean IC50 (nM) SF3B1 (WT) HELA.2): 6.08 nM; GI50 (NCIH1568.1): 7.36 nM"
"CC[C@H](O)[C@@H](C)C1OC1C[C@@](C)(O)/C=C/C=C(\C)[C@H]1OC(=O)C[C@H](O)CC[C@@](C)(OC(C)=O)[C@@H](OC(=O)N2CCNCC2)/C=C/[C@@H]1C (stereo in doubt) [D4, (2S,3S,6S,7R,10R,E)-7-acetoxy-10-hydroxy-2-((R,2E,4E)-6-hydroxy-7-((2S,3S)-3-((2R,3S)-3-hydroxypentan-2-yl)oxiran-2-yl)-6-methylhepta-2,4-dien-2-yl)-3,7-dimethyl-12-oxooxacyclododec-4-en-6-yl piperazine-1-carboxylate]",,3.24 nM,−81.775%,11.4 nM,10.9 nM,−99.957%,0.1 ×10⁻⁶ cm/s,1.79 ×10⁻⁶ cm/s,0.1 10e−6 cm/s,1.79 10e−6 cm/s,106 h,11.1 nM,−55.97%,1960.398 nM,11.9 nM,45.485 nM,1.7 nM,0.1 ×10⁻⁶ cm/s,4.5,1.15 nM,GI50 (NCIH1568.1): 6.37 nM
"CC[C@H](O)[C@@H](C)[C@H]1O[C@@H]1C[C@@](C)(O)/C=C/C=C(\C)[C@H]1OC(=O)C[C@H](O)CC[C@@](C)(OC)[C@@H](OC(=O)N2CCN(C)CC2)/C=C/[C@@H]1C [D2, (2S,3S,6S,7R,10R,E)-10-hydroxy-2-((R,2E,4E)-6-hydroxy-7-((2R,3R)-3-((2R,3S)-3-hydroxypentan-2-yl)oxiran-2-yl)-6-methylhepta-2,4-dien-2-yl)-7-methoxy-3,7-dimethyl-12-oxooxacyclododec-4-en-6-yl 4-methylpiperazine-1-carboxylate]",15.5 nM,0.749 nM,−72.706%,2.85 nM,,−100.218%,0.624 ×10⁻⁶ cm/s,14.2 ×10⁻⁶ cm/s,,,96 h,2.39 nM,−68.803%,,,,0.6 nM,0.6 ×10⁻⁶ cm/s,4,0.316 nM,Payload Rmin (%) (MOLP8 cells; [8]): −100.198%
"CC[C@H](O)[C@@H](C)[C@H]1O[C@@H]1C[C@@](C)(O)/C=C/C=C(\C)[C@H]1OC(=O)C[C@H](O)CC[C@@](C)(OC(=O)N2CCNCC2)[C@@H](OC(C)=O)/C=C/[C@@H]1C [D8, (2S,3S,6S,7R,10R,E)-6-acetoxy-10-hydroxy-2-((R,2E,4E)-6-hydroxy-7-((2R,3R)-3-((2R,3S)-3-hydroxypentan-2-yl)oxiran-2-yl)-6-methylhepta-2,4-dien-2-yl)-3,7-dimethyl-12-oxooxacyclododec-4-en-7-yl piperazine-1-carboxylate]",,8.84 nM,−34.052%,29.6 nM,8.74 nM,−99.92%,0.128 ×10⁻⁶ cm/s,2.03 ×10⁻⁶ cm/s,0.128 10e−6 cm/s,2.027 10e−6 cm/s,84.6 h,16.6 nM,−68.37%,>10000.00 nM,19.1 nM,68.125 nM,2.64 nM,,,,GI50 (NCIH1568.1): 6.57 nM
CC[C@H](O)[C@@H](C)[C@H]1O[C@@H]1C[C@H](C)/C=C/C=C(\C)[C@H]1OC(=O)C[C@H](O)CC[C@@](C)(OC(C)=O)[C@@H](OC(=O)N2CCNCC2)/C=C/[C@@H]1C [D9],,,,,,−99.938%,1.15 ×10⁻⁶ cm/s,16.1 ×10⁻⁶ cm/s,,,< 24 h,,,,,,,,,,IC50 (SF3b complex): 2.18 nM
CC(=O)N1CCC(n2nnc3c(F)cc(/C=C(\C)[C@H]4OC(=O)C[C@H](O)CC[C@H](C)[C@@H](OC(=O)N5CCN(C)CC5)/C=C/[C@@H]4C)cc32)CC1 [D15],,0.41 nM,−68.045%,0.961 nM,,−99.595%,3.43 ×10⁻⁶ cm/s,26.9 ×10⁻⁶ cm/s,,,> 168 h,3.88 nM,−79.835%,,,,0.358 nM,3.4 ×10⁻⁶ cm/s,7,0.776 nM,Payload LD50 (N87 cells): >200 nM; Payload LD50 (HCC1954 cells; [9]): 2.037 nM; Payload Rmin (%) (HCC1954 cells; [9]): −84.412%
C/C(=C\c1cc(F)cc(N2CCOCC2)c1)[C@H]1OC(=O)C[C@H](O)CC[C@H](C)[C@@H](OC(=O)N2CCN(C)CC2)/C=C/[C@@H]1C [D17],1.82 nM,,,,,−99.033%,20.2 ×10⁻⁶ cm/s,18.2 ×10⁻⁶ cm/s,,,,,,,,,,20 ×10⁻⁶ cm/s,7,,
CC[C@H](O)[C@@H](C)[C@H]1O[C@@H]1C[C@@](C)(O)/C=C/C=C(\C)[C@H]1OC(=O)C[C@H](O)CC[C@@](C)(OC)[C@@H](OC(=O)N2CCN(CCCC(=O)O)CC2)/C=C/[C@@H]1C [D25],,> 200 nM,40.364%,> 200 nM,,−77.246%,0.137 ×10⁻⁶ cm/s,0.349 ×10⁻⁶ cm/s,,,120 h,> 400 nM,77.524%,,,,168 nM,0.14 ×10⁻⁶ cm/s,3.4,150 nM,"GI50 (THP1.1; unconjugated payload, payload cell potency and lethality): 348.114 nM; payload permeability (in words) (Caco-2 cells): poorly permeable; Payload LD50 (MOLP8 cells; [8]): >400 nM; Payload LD50 (PC3 cells; free payload of the ADC): >400 nM"
